Patent US20230373934A1, “ANDROGEN RECEPTOR MODULATORS AND METHODS FOR THEIR USE” (ESSA Pharma, Inc., priority 2022, published 2023)

Experiments:
androgen receptor (AR) [1] = target: T1, androgen receptor (AR) (Homo sapiens, UniProt P10275); test: Androgen-induced PSA-luciferase assay, Luciferase Assay B (cells stably expressing ARR2PB or PSA-firefly luciferase reporter, 384-well); type: cell-based; settings: Luciferase Assay B (Compounds A186-A219 and A221-A245); stable luciferase reporter cells, 1 h pretreatment, R1881 24 h, serum-free; read-out: PSA-Luc IC50 Range
T1 sequence (P10275 1-920 T878A): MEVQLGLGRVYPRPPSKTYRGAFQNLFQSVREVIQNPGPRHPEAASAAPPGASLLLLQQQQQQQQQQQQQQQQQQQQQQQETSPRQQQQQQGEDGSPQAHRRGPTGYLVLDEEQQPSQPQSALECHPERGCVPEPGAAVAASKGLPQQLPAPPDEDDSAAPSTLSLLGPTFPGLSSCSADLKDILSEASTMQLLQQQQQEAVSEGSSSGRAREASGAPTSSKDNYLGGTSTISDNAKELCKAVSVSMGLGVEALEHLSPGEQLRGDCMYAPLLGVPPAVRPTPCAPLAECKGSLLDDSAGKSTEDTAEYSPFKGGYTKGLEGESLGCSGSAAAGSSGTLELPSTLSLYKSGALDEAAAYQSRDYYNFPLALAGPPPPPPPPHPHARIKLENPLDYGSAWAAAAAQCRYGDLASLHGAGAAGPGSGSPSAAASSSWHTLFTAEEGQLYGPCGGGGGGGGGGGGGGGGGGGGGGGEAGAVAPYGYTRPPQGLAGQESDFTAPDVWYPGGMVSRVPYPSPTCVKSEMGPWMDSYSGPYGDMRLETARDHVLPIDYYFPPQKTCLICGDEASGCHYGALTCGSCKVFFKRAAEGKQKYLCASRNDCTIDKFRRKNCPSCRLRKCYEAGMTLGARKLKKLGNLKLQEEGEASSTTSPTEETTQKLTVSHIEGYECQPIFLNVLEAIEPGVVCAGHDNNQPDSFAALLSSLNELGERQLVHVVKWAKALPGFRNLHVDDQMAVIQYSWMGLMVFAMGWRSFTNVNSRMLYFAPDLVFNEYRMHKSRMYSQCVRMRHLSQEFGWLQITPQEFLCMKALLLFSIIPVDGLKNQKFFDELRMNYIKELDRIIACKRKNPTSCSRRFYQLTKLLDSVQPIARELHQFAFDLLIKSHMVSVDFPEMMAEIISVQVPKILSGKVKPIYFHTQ
Method: Luciferase Assay B: Cells stably expressing probasin promoter (ARR2PB) or human prostate-specific antigen (PSA)-firefly luciferase reporter were plated in poly-D-lysine-coated 384-well plates. 48 h after plating, cells were pretreated with vehicle or compounds for 1 h before adding R1881 under serum-free and phenol red-free conditions and then further incubated for 24 h. R1881 was added only for LNCaP cells. Firefly luciferase activities were determined by EnVision plate reader (Perkinemer) using the Steady-Glo Luciferase Reporter Assay System (Promega). Values were normalized to protein content. GraphPad Prism graphing software was used to calculate IC50 values. Luciferase Assay B was run for Compounds A186-A219 and A221-A245 in Table 2.
Statistical analyses were performed using GraphPad Prism (Version 6.01 for Windows; La Jolla, CA, USA). Comparisons between treatment and control groups were compared using Two-Way ANOVA with post-hoc Dunnett's and Tukey's tests. Differences were considered statistically significant at P values less than 0.05.

[2] = Microsomal stability assay, liver microsome half-life (human); type: in vitro ADME; settings: pH 7.4; human liver microsomes 0.5 mg/mL + NADPH, 1 μM compound, 37° C; read-out: Liver microsome + NADPH T½ (min) Human
Description: (§1) Microsomal Stability Assay: Microsomal stability assay is a widely used in vitro model to characterize the metabolic conversion by phase I enzymes, such as cytochrome P450 (CYP) enzymes. Since metabolism is known to be highly variable in different species, microsomal stability assay is commonly run in multiple species. Metabolic stability of testing compound can be evaluated using human, rat, mouse, or other animal liver or intestine microsomes to predict intrinsic clearance.
(§2) The assay was carried out in 96-well microtiter plates at 37° C. Reaction mixtures (25 μL) contained a final concentration of 1 μM test compound, 0.5 mg/mL liver microsomes protein, and 1 mM NADPH and/or 1 mM UDPGA (with alamethicin) in 100 mM potassium phosphate, pH 7.4 buffer with 3 mM MgCl2. The incubation was done with N=1, but duplicate incubation at each time point can be prepared if necessary. At each of the time points (for example, 0, 15, 30, and 60 minutes), 150 μL of quench solution (100% acetonitrile with 0.1% formic acid) with internal standard was transferred to each well. Besides the zero minute controls, mixtures containing the same components except the NADPH can also be prepared as the negative control. Verapamil was included as a positive control to verify assay performance. Plates were sealed, vortexed, and centrifuged at 4° C. for 15 minutes at 4000 rpm. The supernatant is transferred to fresh plates for LC/MS/MS analysis.
(§3) Summarized conditions: [Compound]=1 μM, [LM]=0.5 mg/mL, [NADPH]=1 mM and/or [UDPGA]=1 mM, Buffer=100 mM Potassium Phosphate, pH 7.4 with 3 mM MgCl2, Time=0, 15, 30, and 60 min, and Temperature=37° C.
(§4) All samples were analyzed on LC/MS/MS using an AB Sciex API 4000 instrument, coupled to a Shimadzu LC-20AD LC Pump system. Analytical samples were separated using a Waters Atlantis T3 dC18 reverse phase HPLC column (20 mm×2.1 mm) at a flow rate of 0.5 mL/min. The mobile phase consisted of 0.1% formic acid in water (solvent A) and 0.1% formic acid in 100% acetonitrile (solvent B).
(§5) The extent of metabolism is calculated as the disappearance of the test compound, compared to the 0-min time incubation. Initial rates are calculated for the compound concentration and used to determine half-life (t1/2).

[3] = Microsomal stability assay, liver microsome half-life (rat); type: in vitro ADME; settings: pH 7.4; rat liver microsomes 0.5 mg/mL + NADPH, 1 μM compound, 37° C; read-out: Liver microsome + NADPH T½ (min) Rat
Description: as §1, §2, §3, §4, §5

[4] = Microsomal stability assay, liver microsome half-life (mouse); type: in vitro ADME; settings: pH 7.4; mouse liver microsomes 0.5 mg/mL + NADPH, 1 μM compound, 37° C; read-out: Liver microsome + NADPH T½ (min) Mouse
Description: as §1, §2, §3, §4, §5

[5] = Microsomal stability assay, liver microsome half-life (dog); type: in vitro ADME; settings: pH 7.4; dog liver microsomes 0.5 mg/mL + NADPH, 1 μM compound, 37° C; read-out: Liver microsome + NADPH T½ (min) Dog
Description: as §1, §2, §3, §4, §5

[6] = Microsomal stability assay, liver microsome half-life (monkey); type: in vitro ADME; settings: pH 7.4; monkey liver microsomes 0.5 mg/mL + NADPH, 1 μM compound, 37° C; read-out: Liver microsome + NADPH T½ (min) Monkey
Description: as §1, §2, §3, §4, §5

androgen receptor (AR) [7] = target: T2, androgen receptor (AR) (Homo sapiens, UniProt P10275, T878A); test: Androgen-induced PSA-luciferase assay, Luciferase Assay A (LNCaP transiently transfected with PSA (6.1 kb)-luciferase reporter); type: cell-based; settings: LNCaP cells, 1 h pretreatment, R1881 (1 nM) 24 h, read-out: PSA-Luc IC50 Range
T2 construct: endogenous in cells; host or cells: LNCaP
T2 sequence (P10275 1-920 T878A): T1 sequence (P10275 1-920 T878A)
Procedure, shortened: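 LNCaP cells transfected 24 h with PSA (6.1 kb)-luciferase reporter, pretreated 1 h with compound, then stimulated 24 h with R1881 (1 nM). Firefly luminescence in lysates normalized to protein content; IC50 from activity relative to R1881-induced vehicle control.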

Row | SMILES | IC50 (androgen receptor (AR) [1]) [nM] | half-life at 1 μM [2] [min] | half-life at 1 μM [3] [min] | half-life at 1 μM [4] [min] | half-life at 1 μM [5] [min] | half-life at 1 μM [6] [min] | IC50 (androgen receptor (AR) [7]) [nM]
1 | CC(C)(c1ccc(-c2ccc(CNS(C)(=O)=O)nc2)cc1)c1cc(Cl)c(OCCCl)c(C#N)c1 [Compound A1] | – | > 120 | 61 | > 120 | 62 | > 120 | 500 to 2000
2 | CC(C)(c1ccc(OC[C@H]2C[C@H](NS(C)(=O)=O)C2)cc1)c1cc(Cl)c(OCCCl)c(C#N)c1 [Compound A15, N-((1r,3r)-3-((4-(2-(3-chloro-4-(2-chloroethoxy)-5-cyanophenyl)propan-2-yl)phenoxy)methyl)cyclobutyl)methanesulfonamide] | – | > 120 | > 120 | > 120 | > 120 | > 120 | 500 to 2000
3 | CN(c1ccc(-c2ccc3nc(NS(C)(=O)=O)cnc3c2)cc1)c1cc(Cl)c(OCCCl)c(C#N)c1 [Compound A81] | – | > 120 | > 120 | > 120 | > 120 | > 120 | < 500
4 | CC(C)(c1ccc(-c2cnc(N3CC(NS(C)(=O)=O)C3)nc2)cc1)c1cc(Cl)c(OCCCl)c(C#N)c1 [Compound A36, N-(1-(5-(4-(2-(3-chloro-4-(2-chloroethoxy)-5-cyanophenyl)propan-2-yl)phenyl)pyrimidin-2-yl)azetidin-3-yl)methanesulfonamide] | – | > 120 | 66 | > 120 | > 120 | 49 | < 500
5 | CS(=O)(=O)Nc1ccc2cc(-c3ccc(Oc4cc(Cl)c(OCCCl)c(C#N)c4)cc3)cnc2n1 [Compound A24] | – | > 120 | > 120 | > 120 | 78 | > 120 | 500 to 2000
6 | CS(=O)(=O)Nc1cnc2cc(-c3ccc(N(CC(F)(F)F)c4cc(Cl)c(OCCCl)c(C#N)c4)cc3)ccc2n1 [Compound A22, N-(6-(4-((3-chloro-4-(2-chloroethoxy)-5-cyanophenyl)(2,2,2-trifluoroethyl)amino)phenyl)quinoxalin-2-yl)methanesulfonamide] | – | > 120 | > 120 | > 120 | > 120 | > 120 | 500 to 2000
7 | CCN(c1ccc(-c2ccc3nc(NS(C)(=O)=O)cnc3c2)cc1)c1cc(Cl)c(OCCCl)c(C#N)c1 [Compound A82] | – | > 120 | > 120 | > 120 | > 120 | > 120 | < 500
8 | CC(C)(C)N(c1ccc(-c2ccc3nc(NS(C)(=O)=O)cnc3c2)cc1)c1cc(Cl)c(OCCCl)c(C#N)c1 [Compound A28] | – | 78 | > 120 | > 120 | > 120 | > 120 | 500 to 2000
9 | CS(=O)(=O)Nc1cnc2cc(-c3ccc(N(c4cc(Cl)c(OCCCl)c(C#N)c4)C4CC4)cc3)ccc2n1 [Compound A80, N-(6-(4-((3-chloro-4-(2-chloroethoxy)-5-cyanophenyl)(cyclopropyl)amino)phenyl)quinoxalin-2-yl)methanesulfonamide] | – | > 120 | > 120 | 96 | > 120 | > 120 | < 500

Next, values leading:

Row | IC50 (androgen receptor (AR) [1]) [nM] | half-life at 1 μM [2] [min] | half-life at 1 μM [3] [min] | half-life at 1 μM [4] [min] | half-life at 1 μM [5] [min] | half-life at 1 μM [6] [min] | IC50 (androgen receptor (AR) [7]) [nM] | SMILES
10 | < 500 | > 120 | > 120 | > 120 | > 120 | > 120 | – | CS(=O)(=O)Nc1cnc2cc(-c3ccc(N(CC(F)(F)F)c4cnc(OC5CC5)c(C#N)c4)cc3)ccc2n1 [Compound A203, N-(6-(4-((5-cyano-6-cyclopropoxypyridin-3-yl)(2,2,2-trifluoroethyl)amino)phenyl)quinoxalin-2-yl)methanesulfonamide]
11 | – | > 120 | > 120 | > 120 | > 120 | > 120 | 500 to 2000 | CS(=O)(=O)Nc1cnc2cc(-c3ccc(N(c4cc(Cl)c(OC5CC5)c(C#N)c4)C4CC4)cc3)ccc2n1 [Compound A177]
12 | – | > 120 | > 120 | > 120 | > 120 | > 120 | 500 to 2000 | CN(c1ccc(-c2ccc3nc(NS(C)(=O)=O)cnc3c2)cc1)c1cc(Cl)c(OC2CC2)c(C#N)c1 [Compound A164, N-(6-(4-((3-chloro-5-cyano-4-cyclopropoxyphenyl)(methyl)amino)phenyl)quinoxalin-2-yl)methanesulfonamide]
13 | – | 101 | > 120 | > 120 | > 120 | 100 | 500 to 2000 | CS(=O)(=O)N[C@H]1C[C@H](n2cc(-c3ccc(N(CC(F)(F)F)c4cc(Cl)c(OCCCl)c(C#N)c4)cc3)cn2)C1 [Compound A84]
14 | – | > 120 | > 120 | > 120 | > 120 | 117 | 500 to 2000 | CS(=O)(=O)NC1CN(c2cnc(-c3ccc(Oc4cc(Cl)c(OCCCl)c(C#N)c4)cc3)cn2)C1 [Compound A94]
